# Values quoted from earlier work in patent US9035093B2 (Colgate-Palmolive Company, priority 2009, dated 2015).
# Settings: room temperature, natural partial pressure (3.5×10^−4 atmosphere)
structure (smiles),measurement,value
O=C=O [Carbon dioxide],maximum concentration of carbon dioxide in water,12 µM
